≈ marks a conversion by molar mass, not a printed value.
Experiments:
[1] = tested on: S. aureus NCTC 4163; test: MIC, broth microdilution, standard strain; format: cell-based, Staphylococcus aureus; settings: Staphylococcus aureus, NCTC4163, 19 h, 35 °C
[2] = tested on: S. aureus ATCC 25923; test: MIC, broth microdilution, standard strain; format: cell-based, Staphylococcus aureus; settings: Staphylococcus aureus, ATCC25923, 19 h, 35 °C
[3] = tested on: S. aureus ATCC 6538; test: MIC, broth microdilution, standard strain; format: cell-based, Staphylococcus aureus; settings: Staphylococcus aureus, ATCC6538, 19 h, 35 °C
[4] = tested on: S. aureus ATCC 29213; test: MIC, broth microdilution, standard strain; format: cell-based, Staphylococcus aureus; settings: Staphylococcus aureus, ATCC29213, 19 h, 35 °C
[5] = tested on: S. epidermidis ATCC 12228; test: MIC, broth microdilution, standard strain; format: cell-based, Staphylococcus epidermidis; settings: Staphylococcus epidermidis, ATCC12228, 19 h, 35 °C
[6] = tested on: S. epidermidis ATCC 35984; test: MIC, broth microdilution, standard strain; format: cell-based, Staphylococcus epidermidis; settings: Staphylococcus epidermidis, ATCC35984, 19 h, 35 °C
[7] = tested on: E. coli ATCC 25922; test: MIC, broth microdilution, standard strain; format: cell-based, Escherichia coli; settings: 35 °C; for MIC: Escherichia coli, ATCC25922, 19 h
[8] = tested on: P. aeruginosa ATCC 15442; test: MIC, broth microdilution, standard strain; format: cell-based, Pseudomonas aeruginosa; settings: Pseudomonas aeruginosa, ATCC15442, 19 h, 35 °C
[9] = tested on: S. epidermidis KR 4243; test: MIC, broth microdilution, clinical strain; format: cell-based, Staphylococcus epidermidis; settings: Staphylococcus epidermidis, KR4243, 19 h, 35 °C
[10] = tested on: S. pasteuri KR 4358; test: MIC, broth microdilution, clinical strain; format: cell-based, Staphylococcus pasteuri; settings: Staphylococcus pasteuri, KR4358, 19 h, 35 °C
[11] = tested on: S. aureus T 5595; test: MIC, broth microdilution, clinical strain; format: cell-based, Staphylococcus aureus; settings: Staphylococcus aureus, T5595, 19 h, 35 °C
[12] = tested on: S. aureus T 5591; test: MIC, broth microdilution, clinical strain; format: cell-based, Staphylococcus aureus; settings: Staphylococcus aureus, T5591, 19 h, 35 °C
[13] = tested on: E. coli 520; test: MIC, broth microdilution, clinical strain; format: cell-based, Escherichia coli; settings: Escherichia coli, 520, 19 h, 35 °C
[14] = tested on: E. coli 600; test: MIC, broth microdilution, clinical strain; format: cell-based, Escherichia coli; settings: Escherichia coli, 600, 19 h, 35 °C
[15] = tested on: E. coli 510; test: MIC, broth microdilution, clinical strain; format: cell-based, Escherichia coli; settings: Escherichia coli, 510, 19 h, 35 °C
[16] = tested on: P. aeruginosa 659; test: MIC, broth microdilution, clinical strain; format: cell-based, Pseudomonas aeruginosa; settings: Pseudomonas aeruginosa, 659, read-out: MIC P. aeruginosa 659, 19 h, 35 °C
[17] = tested on: HCT116 (human colon cancer); test: MTT cytotoxicity assay; format: cell-based; settings: Homo sapiens, HCT-116, 72 h, mean SD
In short: (§1)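 Cells were seeded at 1 × 10^4/well, adhered 24 h, then treated for 72 h at 37 °C/5% CO2 against an untreated control. Viability was read as MTT reduction (0.5 mg/mL, 4 h; formazan in DMSO/isopropanol, 570 nm) relative to control, three repeats, with IC50 estimated from the data.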

[18] = tested on: HaCaT (human immortal keratinocyte cell line); test: MTT cytotoxicity assay; format: cell-based; settings: Homo sapiens, HaCaT, 72 h, mean SD, read-out: IC50 HaCaT (normal cells)
In short: as §1

[19] = tested on: HepG2 (human liver cancer); test: MTT cytotoxicity assay; format: cell-based; settings: Homo sapiens, HepG2, 72 h, mean SD
In short: as §1

[20] = tested on: SW480 (human primary colon cancer); test: MTT cytotoxicity assay; format: cell-based; settings: Homo sapiens, SW480, 72 h, mean SD
In short: as §1

[21] = tested on: SW620 (human metastatic colon cancer); test: MTT cytotoxicity assay; format: cell-based; settings: Homo sapiens, SW-620, 72 h, mean SD
In short: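 SW620 lymph-node metastatic colon cancer cells (MEM, 10% FBS, 37 °C/5% CO2) treated with compounds; viability by MTT reduction, formazan dissolved in DMSO/isopropanol 1:1, read at 570 nm.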

[22] = tested on: standard Gram-positive Staphylococci; test: MIC, panel of standard Gram-positive strains; format: cell-based, Staphylococcus; settings: range over all standard Gram-positive Staphylococci

| SMILES | MIC [1] [µg/mL] | MIC [2] [µg/mL] | MIC [3] [µg/mL] | MIC [4] [µg/mL] | MIC [5] [µg/mL] | MIC [6] [µg/mL] | MIC [7] [µg/mL] | MIC [8] [µg/mL] | MIC [9] [µg/mL] | MIC [10] [µg/mL] | MIC [11] [µg/mL] | MIC [12] [µg/mL] | MIC [13] [µg/mL] | MIC [14] [µg/mL] | MIC [15] [µg/mL] | MIC [16] [µg/mL] | IC50 [17] [µM] | IC50 [18] [µM] | IC50 [19] [µM] | IC50 [20] [µM] | also measured |
| --- | --- | --- | --- | --- | --- | --- | --- | --- | --- | --- | --- | --- | --- | --- | --- | --- | --- | --- | --- | --- | --- |
| CC(C)[C@@H]1CC[C@@H](C)C[C@H]1OC(=O)CCCCCN1CCN(c2cc3c(cc2F)c(=O)c(C(=O)O)cn3C2CC2)CC1 [Compound 6, 1-cyclopropyl-6-fluoro-7-{4-[6-((1R,2S,5R)-2-isopropyl-5-methylcyclohexyloxy)-6-oxohexyl]piperazin-1-yl}-4-oxo-1,4-dihydroquinoline-3-carboxylic acid] | 4 (≈ 6.85 µM) | 8 (≈ 13.7 µM) | 4 (≈ 6.85 µM) | 8 (≈ 13.7 µM) | 8 (≈ 13.7 µM) | 8 (≈ 13.7 µM) | 32 (≈ 54.8 µM) | 256 (≈ 439 µM) | 8 (≈ 13.7 µM) | 8 (≈ 13.7 µM) | 8 (≈ 13.7 µM) | 8 (≈ 13.7 µM) | 64 (≈ 110 µM) | 64 (≈ 110 µM) | > 256 | > 256 | 29.5 ± 2.1 | > 100 | 53.7 ± 0.9 | 46.2 ± 1.8 | IC50 [21]: 38.1 ± 2.5 µM; melting point: 210.8 to 212.4 °C |
| Cc1ccc(C(C)C)c(OC(=O)CCCN2CCN(c3cc4c(cc3F)c(=O)c(C(=O)O)cn4C3CC3)CC2)c1 [Compound 12, 1-cyclopropyl-6-fluoro-7-{4-[4-(2-isopropyl-5-methylphenoxy)-4-oxobutyl]piperazin-1-yl}-4-oxo-1,4-dihydroquinoline-3-carboxylic acid] | 1.6 (≈ 2.91 µM) | 0.8 (≈ 1.46 µM) | 1.6 (≈ 2.91 µM) | 0.8 (≈ 1.46 µM) | 0.8 (≈ 1.46 µM) | 0.8 (≈ 1.46 µM) | 2 to 4 (≈ 3.64 to 7.28 µM) | 12.8 (≈ 23.3 µM) | 2 (≈ 3.64 µM) | 1 (≈ 1.82 µM) | 4 (≈ 7.28 µM) | 1 (≈ 1.82 µM) | 8 (≈ 14.6 µM) | 4 (≈ 7.28 µM) | 128 (≈ 233 µM) | 64 (≈ 116 µM) | 28.6 ± 0.1 | 59.1 ± 3.1 | 43.4 ± 3.1 | 33.7 ± 3.5 | MIC E. coli ATCC 25922 ([7]; 19 h): 3.2 µg/mL (≈ 5.82 µM); IC50 [21]: 61.8 ± 0.1 µM; MIC range against standard Gram-positive strains [22]: 0.8 to 1.6 µg/mL |
